Measured values published in the NIST ThermoML archive (doi:10.1016/j.jct.2015.12.031).
Numbers after ± are expanded uncertainties.

Key:
[1] = Liquid; for speed of sound: Sing-around technique in a fixed-path interferometer; for mass density: Vibrating tube method
[2] = refractive index (Na D-line) (dimensionless); settings: Liquid, Standard Abbe refractometry
[3] = mn = molality of the nth substance listed, in mol/kg; settings: 86.5 kPa, Liquid, m2 = 0; for speed of sound: Frequency=3 MHz, Sing-around technique in a fixed-path interferometer; for mass density: Vibrating tube method
[4] = refractive index (Na D-line) (dimensionless); mn = molality of the nth substance listed, in mol/kg; settings: 86.5 kPa, Liquid, Standard Abbe refractometry, m2 = 0
[5] = 288.15 K, 86.5 kPa, Frequency=3 MHz
[6] = 293.15 K, 86.5 kPa, Frequency=3 MHz
[7] = 298.15 K, 86.5 kPa, Frequency=3 MHz
[8] = 303.15 K, 86.5 kPa, Frequency=3 MHz

CCCCCCCCn1cc[n+](C)c1.[Br-] [1-methyl-3-octylimidazolium bromide]
speed of sound [1, 5]: 1605.2 ± 3.2 m/s
mass density ([1]; 288.15 K, 86.5 kPa): 1179.37 ± 7.4 kg/m3
speed of sound [1, 6]: 1581.9 ± 3.2 m/s
mass density ([1]; 293.15 K, 86.5 kPa): 1176.17 ± 7.4 kg/m3
speed of sound [1, 7]: 1561.9 ± 3.2 m/s
mass density ([1]; 298.15 K, 86.5 kPa): 1172.98 ± 7.4 kg/m3
speed of sound [1, 8]: 1542.8 ± 3.2 m/s
mass density ([1]; 303.15 K, 86.5 kPa): 1169.86 ± 7.4 kg/m3
refractive index ([2]; 288.15 K, 86.5 kPa): 1.525 ± 0.0012
refractive index ([2]; 293.15 K, 86.5 kPa): 1.5236 ± 0.0012
refractive index ([2]; 298.15 K, 86.5 kPa): 1.5221 ± 0.0012
refractive index ([2]; 303.15 K, 86.5 kPa): 1.5206 ± 0.0012

CCCCCCn1cc[n+](C)c1.[Br-] [3-hexyl-1-methyl-1H-imidazolium bromide]
speed of sound [1, 5]: 1639.4 ± 3.2 m/s
mass density ([1]; 288.15 K, 86.5 kPa): 1231.02 ± 7.5 kg/m3
speed of sound [1, 6]: 1610.4 ± 3.2 m/s
mass density ([1]; 293.15 K, 86.5 kPa): 1227.43 ± 7.5 kg/m3
speed of sound [1, 7]: 1587.1 ± 3.2 m/s
mass density ([1]; 298.15 K, 86.5 kPa): 1223.74 ± 7.5 kg/m3
speed of sound [1, 8]: 1568.7 ± 3.2 m/s
mass density ([1]; 303.15 K, 86.5 kPa): 1220.35 ± 7.5 kg/m3
refractive index ([2]; 288.15 K, 86.5 kPa): 1.5282 ± 0.0012
refractive index ([2]; 293.15 K, 86.5 kPa): 1.5268 ± 0.0012
refractive index ([2]; 298.15 K, 86.5 kPa): 1.5254 ± 0.0012
refractive index ([2]; 303.15 K, 86.5 kPa): 1.5237 ± 0.0012

CCCCCCCC [octane]
speed of sound [1, 5]: 1214.5 ± 5.1 m/s
mass density ([1]; 288.15 K, 86.5 kPa): 706.994 ± 7.5 kg/m3
speed of sound [1, 6]: 1193.3 ± 5.1 m/s
mass density ([1]; 293.15 K, 86.5 kPa): 702.995 ± 7.5 kg/m3
speed of sound [1, 7]: 1172.4 ± 5.1 m/s
mass density ([1]; 298.15 K, 86.5 kPa): 698.923 ± 7.4 kg/m3
speed of sound [1, 8]: 1151.5 ± 5.1 m/s
mass density ([1]; 303.15 K, 86.5 kPa): 694.878 ± 7.4 kg/m3
refractive index ([2]; 288.15 K, 86.5 kPa): 1.3998 ± 0.0015
refractive index ([2]; 293.15 K, 86.5 kPa): 1.3973 ± 0.0015
refractive index ([2]; 298.15 K, 86.5 kPa): 1.3949 ± 0.0015
refractive index ([2]; 303.15 K, 86.5 kPa): 1.3924 ± 0.0015

CCCCCCCC [octane] + c1ccsc1
speed of sound ([3]; 288.15 K): 1214.5 ± 5.1 m/s
mass density ([3]; 288.15 K): 706.994 ± 7.5 kg/m3
speed of sound ([3]; 293.15 K): 1193.3 ± 5.1 m/s
mass density ([3]; 293.15 K): 702.995 ± 7.5 kg/m3
speed of sound ([3]; 298.15 K): 1172.4 ± 5.1 m/s
mass density ([3]; 298.15 K): 698.923 ± 7.4 kg/m3
speed of sound ([3]; 303.15 K): 1151.5 ± 5.1 m/s
mass density ([3]; 303.15 K): 694.878 ± 7.4 kg/m3
refractive index ([4]; 288.15 K): 1.3998 ± 0.0015
refractive index ([4]; 293.15 K): 1.3973 ± 0.0015
refractive index ([4]; 298.15 K): 1.3949 ± 0.0015
refractive index ([4]; 303.15 K): 1.3924 ± 0.0015

c1ccsc1 [thiophene]
speed of sound ([1]; 298.15 K, 101.33 kPa): 1279 ± 1.3 m/s
mass density ([1]; 298.15 K, 101.33 kPa): 1058.56 ± 7 kg/m3
speed of sound ([1]; 303.15 K, 101.33 kPa): 1258.7 ± 1.3 m/s
refractive index ([2]; 298.15 K, 101.33 kPa): 1.5252 ± 0.0011
